From PMC4164784, “4E-BPs require non-canonical 4E-binding motifs and a lateral surface of eIF4E to repress translation” (Nature Communications, 2014) come the findings set out here.

No end group written: not given here.

Test [1] deals with endogenous eIF4E and HA-tagged 4E-BPs in S2 cells. The test is described as follows: Immunofluorescence localization in S2 cells. The class given is cell-based, Drosophila melanogaster. As to conditions: −LMB; for localization of endogenous eIF4E (in words): S2 cells overexpressing 4E-BP or mutant; for localization of the 4E-BP (in words): S2 cells, steady-state.
Another test relates to eIF4E (full length, WT). Briefly: GST/MBP pull-down of full-length WT eIF4E, coexpressed in E. coli. The format is binding, Drosophila melanogaster. The note with it: recombinant CUP (311–440), Thor (full length), 4E-T (1–58) or eIF4G (578–650), WT or mutant, SDS–PAGE. The procedure:
For the pull-down assays shown in Fig. 3 and Supplementary Fig. 6a, the full-length His6- or SHN-tagged eIF4E (WT or II-AA mutant) was coexpressed with GST or MBP-tagged protein fragments, including CUP (residues 311–440), Thor (full length), 4E-T (residues 1–58) or eIF4G (residues 578–650) in E. coli BL21 (DE3) STAR cells in autoinducing medium[44] overnight at 20 °C. The cells were resuspended in lysis buffer (20 mM Tris–HCl (pH 7.5), 100 mM NaCl, 1 mM DTT) supplemented with EDTA-free protease inhibitor (Roche) and lysed by sonication. The cleared lysates were incubated for 1 h with 20 μl of Protino Glutathione Agarose 4B beads (Macherey-Nagel) or amylose resin (New England Biolabs). The beads were washed three times with lysis buffer, and the bound proteins were eluted with lysis buffer containing 25 mM L-glutathione or 25 mM maltose for 15 min. The proteins were analyzed by 10–15% SDS–PAGE followed by Coomassie blue staining.

Test [2] concerns the target T1, eIF4E–eIF4G complex (eIF4E WT; eIF4G residues 578–650) (Drosophila melanogaster, UniProt P48598).
T1 construct: full-length eIF4E (WT or the II-AA mutant) containing an N-terminal SNH-tag was coexpressed; made in house; host or cells: E. coli BL21 Star (DE3), coexpression
T1 sequence (P48598 1-248 isoform P48598-2): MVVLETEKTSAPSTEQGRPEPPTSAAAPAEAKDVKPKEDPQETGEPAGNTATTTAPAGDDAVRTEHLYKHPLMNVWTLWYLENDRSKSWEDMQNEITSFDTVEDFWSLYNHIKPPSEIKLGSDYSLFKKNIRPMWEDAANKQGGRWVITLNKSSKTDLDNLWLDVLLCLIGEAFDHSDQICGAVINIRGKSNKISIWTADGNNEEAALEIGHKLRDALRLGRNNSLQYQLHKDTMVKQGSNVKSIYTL
The test is described as follows: Kinetic dissociation of eIF4E–eIF4G complexes by competitor. The note with it: 1 μM complex on Strep-Tactin beads; fivefold molar excess of C+NC peptide (5 μM); CUP n=3, 4E-T n=2 averages. The class given is biochemical. The procedure:
To obtain the preassembled eIF4E–eIF4G complexes used in Figs 4 and 5d–g, full-length eIF4E (WT or the II-AA mutant) containing an N-terminal SNH-tag was coexpressed with an N-terminal GST-tagged eIF4G (residues 578–650). The cells were lysed by sonication in lysis buffer containing 50 mM HEPES (pH 7.2), 300 mM NaCl and 2 mM DTT. The complexes were purified from the cleared lysates using Protino Glutathione Agarose 4B beads (Machery-Nagel). The complex was further purified using a heparin column (HiTrap Heparin HP 5 ml, GE Healthcare) and a final size exclusion chromatography (Superdex 200 16/60, GE Healtcare) in 20 mM HEPES (pH 7.2), 200 mM NaCl and 2 mM DTT.
In the ‘kinetic assays’ shown in Fig. 5d–g, the purified complexes containing SHN-eIF4E and GST-eIF4G (578–650; 1 μM) were incubated with Strep-Tactin beads for 20 min. […] The eIF4E-associated proteins were pulled down, eluted and analyzed as described above. […]
The amounts of GST-eIF4G bound to eIF4E in each experimental condition were determined using the Image J software after Coomassie blue staining. […]
Each experiment was repeated at least twice. (e,f) Quantification of the experiments shown in Fig. 5d–g. […]
micrographs of fixed S2 cells expressing HA-4E-T and GFP-Tral. The localization of HA-4E-T was determined by indirect immunofluorescence using an anti-HA antibody. […]

Take “4E-T C+NC: 4E-T residues 9–44, eIF4E-binding region short, C-terminal GB1”: in test [1], the “localization of endogenous eIF4E (in words)” value is “the number of eIF4E-positive P-bodies was reduced” and the “localization of the 4E-BP (in words)” value was “still localized to P-bodies”.

Take “4E-T C: 4E-T residues 9–21, canonical motif”: in the test with eIF4E (full length, WT), the “binding to WT eIF4E (in words)” value is recorded as “reduced binding”. Moreover, in test [1], the “localization of endogenous eIF4E (in words)” value is reported as “the number of eIF4E-positive P-bodies was reduced” and the “localization of the 4E-BP (in words)” value is recorded as “still localized to P-bodies”.

As for “CUP C+NC: CUP residues 325–376, eIF4E-binding region short, C-terminal GB1 (KSYTRSRLMDIRNGMFNALMHRSKESFVMPRIATCDDIELEGRLRRMNIWRT-GB1; UniProt Q9VMA3 325-376, looked up, fragment)”, the “time to 50% eIF4G dissociation” value in test [2] was 2.5 ± 0.5 min.
